The source of these data is PubChem BioAssay (NCI).

Among the test systems are UO-31 renal; SK-OV-3 ovarian; SK-MEL-28 melanoma; SR leukemia; MDA-MB-231 breast; HOP-92 NSCLC; IGROV1 ovarian; EKVX NSCLC; OVCAR-8 ovarian; HT29 colon; CAKI-1 renal.
Assay in all cases: NCI tumour cell line growth inhibition, 48 h

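In this assay, cells in 96-well plates receive the compound at five concentrations for 48 hours. Endpoints are linearly interpolated between the surrounding concentrations. GI50 is the concentration that inhibits growth by half. TGI: concentration producing complete growth inhibition.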

Regarding `O=C1C=CC(=O)c2c(O)c(Br)c(Br)c(O)c21`, the TGI in the experiment with UO-31 renal is 6.65 µM; in the experiment on SK-OV-3 ovarian, 35.5 µM; in the experiment on SK-MEL-28 melanoma, 4.91 µM; in the experiment on SR leukemia, 0.289 µM; in the experiment with MDA-MB-231 breast, 7.43 µM; with HOP-92 NSCLC it was 4.18 µM. Besides, the TGI in the experiment on IGROV1 ovarian amounted to 29.7 µM; in the experiment with EKVX NSCLC it was 58.7 µM; in the experiment on OVCAR-8 ovarian, 25.7 µM; with HT29 colon, 9.89 µM.
For the compound `COc1cc(C(=O)CC2OC(=O)C(Cl)=C2Cl)ccc1Cl` (stereo not drawn), the TGI in the experiment with UO-31 renal, with SK-OV-3 ovarian, in the experiment on SK-MEL-28 melanoma, in the experiment on SR leukemia, with HOP-92 NSCLC and in the experiment with CAKI-1 renal was > 100 µM each time. For the same compound, the TGI in the experiment with IGROV1 ovarian, in the experiment with EKVX NSCLC, with OVCAR-8 ovarian and in the experiment on HT29 colon was > 100 µM in each case.
With `O=C1c2ccccc2C(=O)c2c(Nc3cc4c5c(ccc6c7ccc8c9c(cc(Nc%10cccc%11c%10C(=O)c%10ccccc%10C%11=O)c(c3c56)c97)-c3ccccc3C8=O)C(=O)c3ccccc3-4)cccc21`, the TGI in the experiment with UO-31 renal is > 100 µM; in the experiment with SK-OV-3 ovarian, 51.1 µM; in the experiment on SK-MEL-28 melanoma, > 100 µM; in the experiment on SR leukemia, > 100 µM; with MDA-MB-231 breast, > 100 µM; in the experiment on HOP-92 NSCLC, > 100 µM. The TGI in the experiment on CAKI-1 renal, in the experiment with IGROV1 ovarian, in the experiment on EKVX NSCLC, in the experiment with OVCAR-8 ovarian and in the experiment with HT29 colon was > 100 µM throughout.
As to `CO/N=C\c1cc(O)c(O)c(/C=N/OC)c1`, the TGI in the experiment with UO-31 renal, with SK-OV-3 ovarian, in the experiment on SK-MEL-28 melanoma, in the experiment on SR leukemia, in the experiment with MDA-MB-231 breast and in the experiment with HOP-92 NSCLC was > 100 µM throughout. In addition, the TGI in the experiment on CAKI-1 renal, in the experiment on IGROV1 ovarian, with EKVX NSCLC, in the experiment with OVCAR-8 ovarian and in the experiment with HT29 colon was > 100 µM in each case.
Take `Cc1nc2[nH]ncn2c(=O)c1CCCl`: the TGI with UO-31 renal, with SK-OV-3 ovarian, in the experiment with SK-MEL-28 melanoma, with SR leukemia, in the experiment on MDA-MB-231 breast and in the experiment on CAKI-1 renal was > 10 µM each time. Further, the TGI in the experiment on IGROV1 ovarian, in the experiment on EKVX NSCLC, in the experiment with OVCAR-8 ovarian and with HT29 colon was > 10 µM in each case.
In the case of `O=C(c1ccccc1)c1nc2ccc(Cl)cc2c2c1CCCO2`, the TGI in the experiment with UO-31 renal, in the experiment on SK-MEL-28 melanoma, in the experiment on SR leukemia, with CAKI-1 renal, in the experiment on IGROV1 ovarian and in the experiment on EKVX NSCLC was > 100 µM throughout. The TGI in the experiment on OVCAR-8 ovarian and with HT29 colon was > 100 µM in each case.
Consider `N#C/C(=C\c1ccc(Br)cc1)n1nnc2cc(Cl)c(Cl)cc21`, for which the GI50 is 4.33 µM with SK-OV-3 ovarian; 1.84 µM in the experiment with SK-MEL-28 melanoma; 1.36 µM with SR leukemia; 2.31 µM with MDA-MB-231 breast; 1.14 µM in the experiment on HOP-92 NSCLC; 2 µM with IGROV1 ovarian. The GI50 is 2.83 µM with EKVX NSCLC, 2.17 µM with OVCAR-8 ovarian and 2.18 µM with HT29 colon. In addition, the TGI was > 100 µM in the experiment with SK-OV-3 ovarian; 3.81 µM in the experiment on SK-MEL-28 melanoma; > 100 µM in the experiment with SR leukemia; 8 µM with MDA-MB-231 breast; 3.79 µM with HOP-92 NSCLC; 4.53 µM in the experiment with IGROV1 ovarian. The TGI in the experiment with EKVX NSCLC is > 100 µM; in the experiment on OVCAR-8 ovarian, > 100 µM; in the experiment with HT29 colon it was 5.18 µM.
Turning to `Clc1ccc(C[P+]2(c3ccccc3)CCCCC2)cc1`, the TGI in the experiment on UO-31 renal, with SK-OV-3 ovarian, with SK-MEL-28 melanoma, with SR leukemia, in the experiment on IGROV1 ovarian and in the experiment on EKVX NSCLC was > 100 µM throughout. Further, the TGI in the experiment with OVCAR-8 ovarian and in the experiment on HT29 colon was > 100 µM throughout.
With `C[C@]12CC[C@@H]3c4ccc(O)cc4CC[C@H]3[C@@H]1CC[C@@H]2OC(=O)CCc1ccccc1`, the TGI with UO-31 renal came out at 33.8 µM; in the experiment on SK-OV-3 ovarian, 38.1 µM; in the experiment on SK-MEL-28 melanoma, 39.2 µM; with MDA-MB-231 breast, 33.4 µM; in the experiment with HOP-92 NSCLC it was 36.8 µM; in the experiment on CAKI-1 renal, 37.7 µM. Besides, the TGI with IGROV1 ovarian is 43.9 µM; in the experiment on EKVX NSCLC it was 25.4 µM; in the experiment with OVCAR-8 ovarian, 51 µM; in the experiment with HT29 colon, 40.7 µM.
With `O=C(c1ccccc1)C1C(c2ccccc2)N1S(=O)(=O)c1ccccc1` (stereo not drawn), the TGI with UO-31 renal, in the experiment with SK-OV-3 ovarian, in the experiment on SK-MEL-28 melanoma, in the experiment with MDA-MB-231 breast, in the experiment with CAKI-1 renal and in the experiment on IGROV1 ovarian was > 100 µM in each case. Moreover, the TGI in the experiment with EKVX NSCLC, in the experiment with OVCAR-8 ovarian and in the experiment with HT29 colon was > 100 µM throughout.
As for `Cc1ccc(C2COc3cc(O)c(O)cc3C2)cc1` (stereo not drawn), the TGI in the experiment with UO-31 renal was determined as 101 µM; in the experiment on SK-OV-3 ovarian, 275 µM; in the experiment with SK-MEL-28 melanoma, 32.8 µM; in the experiment on CAKI-1 renal it was 38.1 µM; with IGROV1 ovarian, 38.5 µM; in the experiment with EKVX NSCLC it was 59.8 µM. The values for the TGI with OVCAR-8 ovarian and in the experiment on HT29 colon were 44.7 µM and 149 µM, respectively.
Take `CC1(C)N=C(N)N=C(N)N1c1cccc(C(=O)Nc2ccc(S(=O)(=O)F)cc2)c1`: the TGI in the experiment on UO-31 renal, in the experiment on SK-OV-3 ovarian, in the experiment on SK-MEL-28 melanoma, in the experiment with MDA-MB-231 breast, in the experiment with HOP-92 NSCLC and with CAKI-1 renal was > 100 µM throughout. Besides, the TGI with IGROV1 ovarian, with EKVX NSCLC, in the experiment with OVCAR-8 ovarian and in the experiment on HT29 colon was > 100 µM throughout.
